# From BindingDB's records for doi:10.1016/s0960-894x(98)00240-6 (Boehringer Ingelheim (Canada), 1999)
# pIC50: −log10 of the molar value.
# Assay: Inhibitory activity against porcine pancreatic elastase(PPE)
row,SMILES,pIC50
1,O=C1CC(SCc2ccccn2)N1C(=O)N[C@H](CO)c1ccccc1 (stereo partly drawn) [2-Oxo-4-(pyridin-2-ylmethylsulfanyl)-azetidine-1-carboxylic acid ((S)-2-hydroxy-1-phenyl-ethyl)-amide],< 4.12
2,C[C@@H](NC(=O)N1C(=O)CC1SCc1cccnc1)c1ccccc1 (stereo partly drawn) [2-Oxo-4-(pyridin-3-ylmethylsulfanyl)-azetidine-1-carboxylic acid ((R)-1-phenyl-ethyl)-amide],4.19
3,C[C@@H](NC(=O)N1C(=O)CC1SCc1ccncc1)c1ccccc1 (stereo partly drawn) [2-Oxo-4-(pyridin-4-ylmethylsulfanyl)-azetidine-1-carboxylic acid ((R)-1-phenyl-ethyl)-amide],4.68
4,"CC[C@@H](NC(=O)N1C(=O)[C@@H](C)[C@@H]1SCc1ccccn1)c1ccccc1 [(3R,4S)-3-Methyl-2-oxo-4-(pyridin-2-ylmethylsulfanyl)-azetidine-1-carboxylic acid ((R)-1-phenyl-propyl)-amide]",6.14
5,"CC(C)C[C@@H](COC1CC(=O)N1C(=O)NCc1ccccc1)NC(=O)[C@@H](NC(=O)OC(C)(C)C)C(C)(C)C (stereo partly drawn) [{(S)-1-[(S)-1-(1-Benzylcarbamoyl-4-oxo-azetidin-2-yloxymethyl)-3-methyl-butylcarbamoyl]-2,2-dimethyl-propyl}-carbamic acid tert-butyl ester]",< 4.12
